US20260176319A1, “PEPTIDE ANALOGS AND METHODS OF USING THE SAME” (Kallyope, Inc., priority 2024, published 2026)
Starred links: 1 amine or outer side, 2 acyl side, 3 side chain; linkers in the order of their positions; H or OH if unused. Non-standard residues stand in square brackets, D forms with d. Residues, ends and D or L forms follow the SMILES beside them. *: point of attachment. Trp(7-Me) = Cc1cccc2c(C[C@H](N)C(=O)O)c[nH]c12; C20 diacid = O=C(O)CCCCCCCCCCCCCCCCCCC(=O)*; γGlu = O=C(O)[C@H](CCC(=O)[*:2])N[*:1]; NMeH = CN[C@@H](Cc1c[nH]cn1)C(=O)O; Nle = CCCC[C@H](N)C(=O)O; β3hA = C[C@H](N)CC(=O)O; AEEA = NCCOCCOCC(=O)O; βAla = NCCC(=O)O

How the values were obtained:
[1] = Food intake and body weight after subcutaneous administration in mice, 16 hours (Example A-2b); assay type: in vivo; conditions: male C57BL/6J mice, single subcutaneous dose, peptide 500 nmol/kg, high fat diet
Text: Male C57BL/6J mice, approximately 10 weeks old (Jackson Laboratory), were group housed in a 12-h light cycle room (6:00 AM on, 6:00 PM off) upon arrival and acclimated to the facility for a minimum of 1 week prior to the study. Animals were provided standard rodent chow (PicoLab Rodent Diet, 5053) ad libitum. Animals were single caged for a minimum of 3 days prior to the study. During the period prior to the study day, mice were exposed to one pellet of high fat diet (Research Diets D12492i) to avoid any effects of novelty in the study. On three separate days during this run-in period, mice were given one dose of phosphate-buffered saline (PBS; 5 mL/kg) by subcutaneous injection to acclimate them to the procedure. For baseline measures, pre-weighed meals of standard rodent chow were provided to each animal following acclimation dosing at 3:30 PM, and body weight was recorded. The next morning at 9:30 AM, food intake and body weight measurements were recorded at 16 hours following the presentation of the pre-weighed meal. These measurements and the resulting body weight changes were then used to assign mice to balanced cohorts. On the day of the study, mice were weighed and given a subcutaneous dose of either vehicle (PBS, 5 mL/kg; pH 5.0-8.5) or a peptide of the disclosure (500 nmol/kg; pH 5.0-8.5). Following dosing, a pre-weighed high fat diet was provided. Food intake and body weight measurements were taken at 16 hours following the provision of the pre-weighed high fat diet. […] Table 6 below describes the percent reduction in food intake and the percent body weight (BW) change with peptides as measured relative to the vehicle group.

[2] = Pharmacokinetics after intravenous peptide administration in mice; design: species or system C57BL/6 mice; conditions: mouse, in vivo, C57BL/6 mice, IV 2 mg/kg, formulation of 0.4 mg/mL; for clearance: read-out: CL; for half-life: read-out: T1/2 (converted)
Protocol: GPR-10 and peptides were dosed IV at 2 mg/kg as a formulation of 0.4 mg/mL in […]+65% water (pH 6-7).

human GRP receptors = biological target: T1, human GRP receptors (Homo sapiens, UniProt P30550); assay: IP1 GRPR activity: HTRF IP1-Gq assay in U2OS cells stably expressing human GRP receptors; assay type: cell-based; conditions: 90 minutes incubation, read-out: hIP1 GRPR EC50
T1 construct: host or cells: U2OS
T1 sequence (P30550 whole entry): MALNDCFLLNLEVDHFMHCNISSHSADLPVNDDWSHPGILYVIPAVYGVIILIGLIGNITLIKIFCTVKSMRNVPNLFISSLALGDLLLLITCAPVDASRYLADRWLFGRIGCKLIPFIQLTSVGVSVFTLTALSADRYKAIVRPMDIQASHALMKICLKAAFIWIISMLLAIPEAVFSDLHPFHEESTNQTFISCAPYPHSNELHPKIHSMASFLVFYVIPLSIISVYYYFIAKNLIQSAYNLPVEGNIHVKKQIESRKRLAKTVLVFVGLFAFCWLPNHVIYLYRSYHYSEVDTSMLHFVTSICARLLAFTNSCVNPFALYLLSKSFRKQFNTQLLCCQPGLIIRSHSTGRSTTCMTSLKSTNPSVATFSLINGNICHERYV
Protocol: U2OS cells stably expressing human GRP receptors (DiscoverX, #93-0229C3) were cultured according to manufacturer's instructions. Cells were cultured to […], then collected using AccuTase (Innovative Cell Technologies, #AT104). Cells were washed and plated on a poly-D-lysine-coated 384-well plate (ThermoFisher, #A3890401) at a density of 2,500 cells/well in […] assay buffer (AssayComplete Cell Plating 5 Reagent, DiscoverX #93-0563R5), then incubated overnight at 37° C. and 5% C02. The following morning, a homogenous time-resolved fluorescence (HTRF) assay was performed in a 384-well plate format using the IP1-Gq assay kit (Cisbio, 62IPAPEB). Test compounds were made as a stock in DMSO, then serially diluted to generate 10-point dose response curves in IP1 stimulation buffer. Five microliters of the prepared compounds were then added to the plate containing cells and assay buffer in duplicate, and the cells were incubated at 37° C. and 5% CO2 for 90 minutes. Following compound incubation, […] of IP1 lysis/detection buffer (prepared according to manufacturer's instructions) was added to each well, and the plates were incubated at room temperature for 1 hour. HTRF signals were measured using a plate reader (ClarioSTAR), calculating the ratio between emissions at 665 nm and 620 nm (HTRF ratio). HTRF ratio for positive (Max, […]; SEQ ID NO. 45) and negative (Min, DMSO) controls were used to normalize HTRF data and generate values for % activity. EC50 and Max activity values were determined using a standard 4-parameter fit using GraphPad Prism.

Row | clearance [2] [mL/min/kg] | half-life [2] [h] | EC50 (human GRP receptors) [nM] | Structure (SMILES) | % Body Weight Change at 16 hours (compared with vehicle) [1] [%] | % Reduction in Cumulative Food Intake over 16 hours (compared with vehicle) [1] [%]
1 | 0.23 | 7 | – | CCCC[C@H](NC(=O)[C@H](CC(C)C)NC(=O)[C@H](Cc1c[nH]cn1)NC(=O)CCNC(=O)[C@@H](NC(=O)[C@H](C)NC(=O)[C@H](Cc1c[nH]c2ccccc12)NC(=O)[C@H](Cc1c[nH]cn1)NC(=O)[C@H](CCC(N)=O)NC(=O)CNC(=O)COCCOCCNC(=O)COCCOCCNC(=O)CC[C@H](NC(=O)CCCCCCCCCCCCCCCCCCC(=O)O)C(=O)O)C(C)C)C(N)=O [Peptide 241, Eicosanedioyl-γGlu-OEG-OEG-Gly-Gln-His-Trp-Ala-Val-β-Ala-His-Leu-Nle-NH2] ({C20 diacid-γGlu-AEEA-AEEA}-GQHWAV[βAla]HL[Nle]-NH2) | −10 | 74
2 | – | – | – | CCCC[C@H](NC(=O)[C@H](CC(C)C)NC(=O)[C@H](Cc1c[nH]cn1)NC(=O)CCNC(=O)[C@@H](NC(=O)[C@H](C)NC(=O)[C@H](Cc1c[nH]c2c(C)cccc12)NC(=O)[C@H](Cc1c[nH]cn1)NC(=O)[C@H](CCCNC(=N)N)NC(=O)CNC(=O)COCCOCCNC(=O)COCCOCCNC(=O)CC[C@H](NC(=O)CCCCCCCCCCCCCCCCCCC(=O)O)C(=O)O)C(C)C)C(N)=O [Peptide 242, Eicosanedioyl-γGlu-OEG-OEG-Gly-Arg-His-7MethylTrp-Ala-Val-β-Ala-His-Leu-Nle-NH2] ({C20 diacid-γGlu-AEEA-AEEA}-GRH[Trp(7-Me)]AV[βAla]HL[Nle]-NH2) | −9 | 55
3 | 0.12 | 9.7 | – | CCCC[C@H](NC(=O)[C@H](CC(C)C)NC(=O)[C@H](Cc1c[nH]cn1)NC(=O)CCNC(=O)[C@@H](NC(=O)[C@H](C)NC(=O)[C@H](Cc1c[nH]c2c(C)cccc12)NC(=O)[C@H](Cc1c[nH]cn1)NC(=O)[C@H](CCC(=O)O)NC(=O)[C@@H](CO)NC(=O)[C@H](CCC(=O)O)NC(=O)COCCOCCNC(=O)COCCOCCNC(=O)CC[C@H](NC(=O)CC[C@H](NC(=O)CCCCCCCCCCCCCCCCCCC(=O)O)C(=O)O)C(=O)O)C(C)C)C(N)=O [Peptide 248, Eicosanedioyl-γGlu-γGlu-OEG-OEG-Glu-D-Ser-Glu-His-7MeTrp-Ala-Val-β-Ala-His-Leu-Nle-NH2] ({C20 diacid-γGlu-γGlu-AEEA-AEEA}-E[dS]EH[Trp(7-Me)]AV[βAla]HL[Nle]-NH2) | −9 | 54
4 | – | – | – | CCCC[C@H](NC(=O)[C@H](CC(C)C)NC(=O)[C@H](Cc1c[nH]cn1)N(C)C(=O)C[C@H](C)NC(=O)[C@@H](NC(=O)[C@H](C)NC(=O)[C@H](Cc1c[nH]c2c(C)cccc12)NC(=O)[C@H](Cc1c[nH]cn1)NC(=O)[C@H](CCC(=O)O)NC(=O)[C@H](CO)NC(=O)COCCOCCNC(=O)COCCOCCNC(=O)CC[C@H](NC(=O)CC[C@H](NC(=O)CCCCCCCCCCCCCCCCCCC(=O)O)C(=O)O)C(=O)O)C(C)C)C(N)=O [Peptide 277, Eicosanedioyl-γGlu-γGlu-OEG-OEG-Ser-Glu-His-7MeTrp-Ala-Val-BABA-NMeHis-Leu-Nle-NH2] ({C20 diacid-γGlu-γGlu-AEEA-AEEA}-SEH[Trp(7-Me)]AV[β3hA][NMeH]L[Nle]-NH2) | −12 | 69
5 | – | – | 10.8 | CCCC[C@H](NC(=O)[C@H](CC(C)C)NC(=O)[C@H](Cc1c[nH]cn1)N(C)C(=O)C[C@H](C)NC(=O)[C@@H](NC(=O)[C@H](C)NC(=O)[C@H](Cc1c[nH]c2c(C)cccc12)NC(=O)[C@H](Cc1c[nH]cn1)NC(=O)[C@H](CC(=O)O)NC(=O)CNC(=O)COCCOCCNC(=O)COCCOCCNC(=O)CC[C@H](NC(=O)CC[C@H](NC(=O)CCCCCCCCCCCCCCCCCCC(=O)O)C(=O)O)C(=O)O)C(C)C)C(N)=O [Peptide 278, Eicosanedioyl-γGlu-γGlu-OEG-OEG-Gly-Asp-His-7MeTrp-Ala-Val-BABA-NMeHis-Leu-Nle-NH2] ({C20 diacid-γGlu-γGlu-AEEA-AEEA}-GDH[Trp(7-Me)]AV[β3hA][NMeH]L[Nle]-NH2) | −12 | 63
